Patent publication US20100093715A1, “Plant productivity enhancement by combining chemical agents with transgenic modifications” (BASF SE, priority 2007, published 2010)

Experiments:
[1] = tested on: J553x(HIIIAxA188) null and transgenic corn; test: Fipronil/Pyraclostrobin study, second trial: seed treatment, greenhouse growth, LemnaTec Scanalyzer imaging; type: in vivo, maize (Zea Mays L.)
Procedure: (§1) J553x(HIIIAxA188) null and transgenic corn seeds of the T2 generation were treated with deionized water (Blank), 200 grams fipronil, 10 grams pyraclostrobin (F500), and 200 grams fipronil+10 grams pyraclostrobin; all formulation rates were grams/100 kg seed. Every formulation was applied to approximately 80 seeds. The formulation was pipetted into a 125 ml flask along the sides and bottom of the flask before adding the seeds and shaking the flask for 30 seconds. The coated seeds were then removed from the flask and placed in a plastic dish for drying.
(§2) Seventy-five 3-L pots per treatment (Blank, fipronil, pyraclostrobin, and fipronil+pyraclostrobin) were filled with potting media, labeled with colored stakes, and given a unique barcode. One seed per pot was planted at a depth of approximately 2 cm and covered with media. The media was lightly watered to imbibe the seeds, while allowing for ample oxygen exchange and so that the chemical coatings on the seeds remained intact. After planting, the pots were randomly distributed into three replicate blocks (1 bench=1 block), each with 25 plants of every treatment.
(§3) The plants were maintained in a greenhouse under optimal, well-watered conditions (80-90% field capacity) upon emergence. Supplemental nutrients were administered every third day during watering. The greenhouse temperature was maintained at 30° C., relative humidity at 75%, and light at 350 μmol m^−2s^−1, in a 15-hour day/9-hour night photoperiod. Supplemental lighting was provided using metal-halide lights. Once per week, the pots were randomly mixed within each block.
(§4) On day 21, the plants were imaged to collect the phenotypic data as described in the Imaging Procedures section. Leaves were sampled for transgene copy number on day 25 to identify the null and transgenic plants. On day 28, the plants were imaged and then harvested to collect fresh weight. The presence of the transgene was determined by the Taqman molecular analysis technique. Differences in the phenotypic data collected during the imaging process and in fresh weight among the four treatments and between the null and transgenic plants were assessed. The chemical by transgenic interactions were determined.
(§5) Imaging of the plants was facilitated using a LemnaTec Scanalyzer (Würselen, Germany), which includes a conveyor belt, an imaging station, a watering station, and computers for collecting, processing, and storing the image data. The cameras have a resolution of 1280×960 pixels and operate in 24-bit color.
(§6) The plants were manually transferred by block onto the conveyor system of the scanalyzer. Each plant was then moved through the imager automatically. At the imaging station, cameras collected the top view image and two side view images. The side view images were the transverse view and the view parallel with the plane of the plant.
(§7) As described in the formula (see Appendix A), the scanalyzer calculates plant volume as a number of pixels. To assign a physiologically meaningful value to the volume measurements, a separate experiment was conducted. The plants were scanned with the scanalyzer then harvested. The plant material was placed into a graduated cylinder filled to a known volume with water. The difference between the water plus plant material and water alone provided a known plant volume in mL.
(§8) Using the LemnaTec scanalyzer, we collected stem width; stalk volume; top, transverse, and parallel view plant areas; top, transverse, and parallel view green and yellow pixel counts; stem length; leaf angles and internode lengths through leaf 5; plant width and height; total leaf length; and total plant length.
(§9) Fresh Weight—A measurement of the fresh weight of the plant in grams. Hand-collected fresh weight is measured by harvesting the plant and weighing it on a balance. LemnaTec fresh weight is calculated by the scanalyzer based on plant volume and plant age. The zoom angles of the camera lenses are normalized using a calibration table. […]

[2] = Fipronil-Worldwide technical Bulletin, BASF; cited from earlier work
[3] = tested on: J553x(HIIIAxA188) null and transgenic corn; test: Fipronil/Pyraclostrobin study, initial trial: seed treatment, greenhouse growth, LemnaTec Scanalyzer imaging and harvest; type: in vivo, maize (Zea Mays L.); conditions: for Internode 1 length / Internode 2 length / Internode 3 length: seed treatment; for Fresh Weight: hand-collected
Procedure: as §1, §2, §3, §4, §5, §6, §7, §8, §9

[4] = initial trial, relative to all other treatments

With N#Cc1nn(-c2c(Cl)cc(C(F)(F)F)cc2Cl)c(N)c1[S+]([O-])C(F)(F)F (stereo not drawn) [Fipronil, 5-amino-1-(2,6-dichloro-α,α,α-trifluoro-p-tolyl)-4-trifluoromethylsulfinylpyrazole-3-carbonitrile] the “Broad Side Drk Grn” value ([1]; Avg) was 25067.65 pixels, the “Broad Side Plnt Area” value ([1]; Avg) was 35413.12 pixels and the “Calc Fresh Weight” value ([1]; Avg) was 100.77 g. The “Narrow Side Drk Grn” value ([1]; Avg) was 25969.34 pix, the “Plant Volume” value ([1]; Avg) was 9.19 M pixels and the “Top Drk Grn” value ([1]; Avg) was 57132.20 pixels. The “Broad Side Drk Grn” value ([1]; Null plants) was 26176.97 pixels, the “Broad Side Plnt Area” value ([1]; Null plants) was 36398.18 pixels and the “Calc Fresh Weight” value ([1]; Null plants) was 99.88 g. For the same compound, the “Narrow Side Drk Grn” value ([1]; Null plants) was 24703.55 pix, the “Plant Volume” value ([1]; Null plants) was 8.89 M pixels and the “Top Drk Grn” value ([1]; Null plants) was 56608.71 pixels. For the same compound, the “Broad Side Drk Grn” value ([1]; Trans plants) was 23958.33 pixels, the “Broad Side Plnt Area” value ([1]; Trans plants) was 34428.06 pixels and the “Calc Fresh Weight” value ([1]; Trans plants) was 101.65 g. The “Narrow Side Drk Grn” value ([1]; Trans plants) was 27235.14 pix, the “Plant Volume” value ([1]; Trans plants) was 9.50 M pixels and the “Top Drk Grn” value ([1]; Trans plants) was 57655.69 pixels. The “reported plant performance effects” value [2] was “enhance overall root system and root hair development, increase tiller number and productivity, increase photosynthetic capacity (plant greenness), increase leaf area and plant height, stimulate early flowering and grain maturation leading to significant increases in yield”, the “# Fully Expanded Leaves” value ([3]; Avg) was 3.0 and the “Leaf Angle 0” value ([3]; Avg) was 63.2 degrees. For the same compound, the “Leaf Angle 1” value ([3]; Avg) was 58.9 degrees, the “Plant Volume” value ([3]; Avg) was 6.70E+06 pixels and the “Stem Length” value ([3]; Avg) was 108.8 cm. The “stalk area from the transverse view, Pixel Count” value (“stalk area” for short) ([3]; Avg) was 4910 pixels, the “Internode 1 length” value ([3]; Avg of null and transgenic) was 35.9 cm and the “Internode 2 length” value ([3]; Avg of null and transgenic) was 44.2 cm. For the same compound, the “Internode 3 length” value ([3]; Avg of null and transgenic) was 40.0 cm, the “# Fully Expanded Leaves” value ([3]; Null plants) was 3.1 and the “Leaf Angle 0” value ([3]; Null plants) was 57.5 degrees. The “Leaf Angle 1” value ([3]; Null plants) was 63.6 degrees, the “Plant Volume” value ([3]; Null plants) was 6.53E+06 pixels and the “Stem Length” value ([3]; Null plants) was 110.4 cm. The “stalk area” value ([3]; Null plants) was 5081 pixels, the “Internode 1 length” value ([3]; Null plants) was 35.3 cm and the “Internode 2 length” value ([3]; Null plants) was 45.9 cm. The “Internode 3 length” value ([3]; Null plants) was 42.4 cm, the “Internode 1 length” value ([3]; Trans (transgenic) plants) was 36.6 cm and the “Internode 2 length” value ([3]; Trans (transgenic) plants) was 42.5 cm. For the same compound, the “Internode 3 length” value ([3]; Trans (transgenic) plants) was 37.7 cm, the “# Fully Expanded Leaves” value ([3]; Trans plants) was 3.0 and the “Leaf Angle 0” value ([3]; Trans plants) was 68.7 degrees. For the same compound, the “Leaf Angle 1” value ([3]; Trans plants) was 54.4 degrees, the “Plant Volume” value ([3]; Trans plants) was 6.86E+06 pixels and the “Stem Length” value ([3]; Trans plants) was 107.1 cm. The “stalk area” value ([3]; Trans plants) was 4744 pixels, the “Fresh Weight” value ([3]; Avg) was 162.8 grams and the “Fresh Weight” value ([3]; Null plants) was 160.9 grams. The “Fresh Weight” value ([3]; Trans plants) was 164.7 grams, the “fresh mass (in words)” value ([3]; initial trial, in general) was “enhanced” and the “plant height (in words)” value ([3]; initial trial, in general) was “enhanced”. The “plant volume (in words)” value ([3]; initial trial, in general) was “enhanced”, the “plant width (in words)” value ([3]; initial trial, in general) was “enhanced” and the “greenness (in words)” value [3, 4] was “enhanced”. The “internode length (in words)” value [3, 4] was “enhanced”, the “leaf angle (in words)” value [3, 4] was “enhanced” and the “plant area (in words)” value [3, 4] was “enhanced”. For the same compound, the “Dark Green Count” value ([3]; parallel view, Avg) was 16389.5 pixels, the “Medium Green Count” value ([3]; parallel view, Avg) was 5662.4 pixels and the “Plant Area” value ([3]; parallel view, Avg) was 23760.8 pixels. For the same compound, the “Yellow Count” value ([3]; parallel view, Avg) was 1708.9 pixels, the “Dark Green Count” value ([3]; parallel view, Null plants) was 15955.0 pixels and the “Medium Green Count” value ([3]; parallel view, Null plants) was 5470.9 pixels. For the same compound, the “Plant Area” value ([3]; parallel view, Null plants) was 23035.0 pixels, the “Yellow Count” value ([3]; parallel view, Null plants) was 1609.1 pixels and the “Dark Green Count” value ([3]; parallel view, Trans plants) was 16812.3 pixels. For the same compound, the “Medium Green Count” value ([3]; parallel view, Trans plants) was 5848.7 pixels, the “Plant Area” value ([3]; parallel view, Trans plants) was 24467.0 pixels and the “Yellow Count” value ([3]; parallel view, Trans plants) was 1806.0 pixels. The “Medium Green Count” value ([3]; top view, Avg) was 17465 pixels, the “Medium Green Count” value ([3]; top view, Null plants) was 17038 pixels and the “Medium Green Count” value ([3]; top view, Trans plants) was 17881 pixels. The “Medium Green Count” value ([3]; transverse view, Avg) was 9089.0 pixels, the “Yellow Count” value ([3]; transverse view, Avg) was 3363.6 pixels and the “Medium Green Count” value ([3]; transverse view, Null plants) was 9132.8 pixels. For the same compound, the “Yellow Count” value ([3]; transverse view, Null plants) was 3268.7 pixels, the “Medium Green Count” value ([3]; transverse view, Trans plants) was 9046.4 pixels and the “Yellow Count” value ([3]; transverse view, Trans plants) was 3455.9 pixels.
